Results taken from publication PMC3431598, “Phylogenetic and Transcriptomic Analysis of Chemosensory Receptors in a Pair of Divergent Ant Species Reveals Sex-Specific Signatures of Odor Coding” (PLoS Genetics, 2012).

Target: T1, HsOrco (with AgOR10) (Harpegnathos saltator, UniProt E2BJ30)
T1 construct: gene Orco; full-length CDS from worker antennal cDNA; cRNA in Xenopus oocytes with mosquito AgOR10; with Odorant receptor 10 (Anopheles gambiae)
T1 sequence (E2BJ30 1-479): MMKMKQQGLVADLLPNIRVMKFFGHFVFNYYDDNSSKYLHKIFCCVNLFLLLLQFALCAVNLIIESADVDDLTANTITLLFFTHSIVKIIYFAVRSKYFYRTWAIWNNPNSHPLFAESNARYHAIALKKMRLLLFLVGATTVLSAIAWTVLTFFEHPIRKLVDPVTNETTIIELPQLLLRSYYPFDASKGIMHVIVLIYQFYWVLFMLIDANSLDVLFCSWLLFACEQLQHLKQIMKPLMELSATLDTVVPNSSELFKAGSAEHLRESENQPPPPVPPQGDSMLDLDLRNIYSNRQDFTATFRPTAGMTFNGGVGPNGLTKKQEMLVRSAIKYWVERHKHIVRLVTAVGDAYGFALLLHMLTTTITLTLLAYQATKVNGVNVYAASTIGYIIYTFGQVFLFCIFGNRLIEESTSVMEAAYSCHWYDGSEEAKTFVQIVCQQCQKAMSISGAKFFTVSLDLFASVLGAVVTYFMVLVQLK
T1 sequence (B5U0U7 1-375 partner): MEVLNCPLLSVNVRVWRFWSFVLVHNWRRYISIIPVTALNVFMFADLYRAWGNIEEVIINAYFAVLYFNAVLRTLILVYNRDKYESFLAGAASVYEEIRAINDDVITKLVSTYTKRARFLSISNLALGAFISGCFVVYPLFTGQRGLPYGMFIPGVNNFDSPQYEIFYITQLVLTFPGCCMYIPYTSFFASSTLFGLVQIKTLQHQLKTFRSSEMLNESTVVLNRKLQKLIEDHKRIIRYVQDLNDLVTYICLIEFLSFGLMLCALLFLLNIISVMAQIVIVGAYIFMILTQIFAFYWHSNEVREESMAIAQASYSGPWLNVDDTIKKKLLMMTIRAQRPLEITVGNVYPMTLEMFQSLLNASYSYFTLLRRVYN
Experiment: two-electrode voltage clamp, Xenopus oocytes
Format: cell-based
Conditions: Orco agonist; AgOR10 co-expressed; -80 mV

## CCc1ccc(NC(=O)CSc2nnc(-c3cccnc3)n2CC)cc1 [VUAA1]
  two-electrode voltage clamp, Xenopus oocytes: produced responses to VUAA1 (an agonist for Orco)
